Experimental data reported in patent publication US20080234336A1, “Synergistic Imazalil Combinations” (priority 2005, published 2008).

How the values were obtained:
Format in all cases: cell-based
[1] = tested on: Geotrichum candidum (Gca); experiment: Poison plate assay (Experiment 2), fungal growth and Limpel synergy
Experimental: (§1) Name of the primary compound: imazalil (I) Formulations: (% is in w/v)
• Stock solution: 2000 ppm (w/w) • Solvent for dilutions: demineralised water • Fungal species: post harvest and seed pathogens: Geotrichum candidum (Gca) and Penicillium digitatum (Pdi) Calculated amounts of dilutions were poured into multi-well plates. Culture medium was added aseptically and uniform distribution was obtained by shaking. […] The expected activity E of a combination of active ingredients was calculated by using Limpel's formula (Richter, D. L; Pesticide Science 1987, 19: 309-315): • E=A+B−(A*B)/100 wherein A and B express the activities obtained for each of the active ingredients when applied alone. A synergistic effect is acknowledged if the measured activity M exceeds the calculated (expected) activity E (synergy indicated by figures in bold).

[2] = tested on: Penicillium digitatum (Pdi); experiment: as above; details: Table 6, Pdi; imazalil 0.02 ppm, combinations 0.02 + 0.02 ppm; conc 0 for carpropamid and fosetyl-Al alone
Experimental: as §1
• Stock solution: 2000 ppm (w/w) • Solvent for dilutions: demineralised water • Fungal species: post harvest and seed pathogens: Geotrichum candidum (Gca) and Penicillium digitatum (Pdi) Calculated amounts of dilutions were poured into multi-well plates. Culture medium was added aseptically and uniform distribution was obtained by shaking. The plates were inoculated with the test fungi and incubated during a period long enough to allow complete outgrowth of controls. • Test concentrations: noted in ppm versus growth medium (w/v): see tables • Replicates: 4 • Culture medium: PDA (Potato Dextrose Agar) • Culture conditions: 22° C. and 60% relative humidity • Inoculation: with a small piece of agar from the margin of an actively growing culture or a suspension of spores, mycelium or culture • Evaluation date: at complete outgrowth of control • Synergy calculation: Diameter of fungal growth (in mm) was measured, mean radial growth (X) and measured activity (M) were calculated. The expected activity E of a combination of active ingredients was calculated by using Limpel's formula (Richter, D. L; Pesticide Science 1987, 19: 309-315): • E=A+B−(A*B)/100 wherein A and B express the activities obtained for each of the active ingredients when applied alone. A synergistic effect is acknowledged if the measured activity M exceeds the calculated (expected) activity E (synergy indicated by figures in bold).

Gloeosporium album = experiment: Poison plate assay (Experiment 1), MIC and Synergy Index; details: PDA, 27° C., evaluation after two days, ppm total active ingredient; for MIC: Phlyctema vagabunda, 48 h, read-out: MIC-values (minimum inhibitory concentration) in ppm
Source text: (§2) Name of the primary compound: • imazalil (I) Name of the combination partners: • boscalid (II-a) • cyproconazole (II-b) • pyraclostrobin (II-c) • triflumizole (II-d) Stock solution: 1000 ppm in DMSO
(§3) • Concentrations of total active ingredient in the combinations: a series of concentrations increasing with steps of 1/3: 0.21-0.28-0.38-0.50-0.67-0.89-1.19-1.58-2.11-2.81-3.75-5.00-6.67-8.90-11.87-15.82-21.09-28.13-37.50-50.00 ppm • Culture medium: Potato Dextrose Agiar (PDA): 4 g potato infusion, 20 g bacto dextrose and 15 g bacto agar in 1 liter deionised water • Experimental set up: 24-well plates
(§4) • Inoculum: a spore/mycelium suspension (2 μl) or a piece of agar from the margin of an actively growing colony • Culture conditions: 27° C., 70% relative humidity, dark. • Evaluation: Evaluation after two days. Synergism between component (I) and one of the components (II) was determined by a commonly used and accepted method described by Kull F. C. et al. in Applied Microbiology, 9, 538-541 (1961) using the Synergy Index, which is calculated as follows for two compounds A and B: […]
(§5) wherein: • QA is the concentration of compound A in ppm, acting alone, which produced an end point (e.g. MIC), • Qa is the concentration of compound A in ppm, in the mixture, which produced an end point (e.g. MIC), • QB is the concentration of compound B in ppm, acting alone, which produced an end point (e.g. MIC), • Qb is the concentration of compound B in ppm, in the mixture, which produced an end point (e.g. MIC). When the Synergy Index is greater than 1.0, antagonism is indicated.

Geotrichum candidum = experiment: as above; details: 48 h, PDA, 27° C., evaluation after two days, ppm total active ingredient, read-out: MIC-values (minimum inhibitory concentration) in ppm
Source text: as §2, §3, §4, §5

Colletotrichum musae = experiment: as above; details: PDA, 27° C., evaluation after two days, ppm total active ingredient; for MIC: 48 h, read-out: MIC-values (minimum inhibitory concentration) in ppm
Source text: as §2, §3, §4, §5

Rhizoctonia solani = experiment: as above; details: PDA, 27° C., evaluation after two days, ppm total active ingredient; for MIC: 48 h, read-out: MIC-values (minimum inhibitory concentration) in ppm
Source text: as §2, §3, §4, §5

[3] = Table 7, Gca, conc 60 μM (tetraconazole 6 μM), combinations 60 + 60, (I) + (II-i) 60 + 6
[4] = Table 7, Gca, conc 70 μM (tetraconazole 7 μM), combinations 70 + 70, (I) + (II-i) 70 + 7
[5] = Table 5, Gca, conc 20 ppm each (combinations 20 + 20)
[6] = Table 5, Gca, conc 25 ppm each (combinations 25/25)

Molecule: CSC(=O)c1cccc2nnsc12 [acibenzolar-S-me (II-e), benzo[1,2,3]-thiadiazole-7-carbothioic acid S-methyl ester]
- M = measured activity [1, 3]: 7
- X = mean fungal growth [1, 3]: 14 mm
- M = measured activity [1, 4]: 3
- X = mean fungal growth [1, 4]: 15 mm

Molecule: CCC1(C(=O)NC(C)c2ccc(Cl)cc2)C(C)C1(Cl)Cl (stereo not drawn) [carpropamid (II-f), 2,2-dichloro-N-[1-(4-chlorophenyl)ethyl]-1-ethyl-3-methyl-cyclopropanecarboxamide]
- M = measured activity [2]: 0
- X = mean fungal growth [2]: 15 mm

Molecule: CC(C1CC1)C(O)(Cn1cncn1)c1ccc(Cl)cc1 (stereo not drawn) [cyproconazole, α-(4-chloro-phenyl)-α-(1-cyclopropyl-ethyl)-1H-1,2,4-triazole-1-ethanol]
- MIC (Gloeosporium album): 2.81 µg/mL
- MIC (Geotrichum candidum): 6.67 µg/mL
- MIC (Colletotrichum musae): 66.7 µg/mL
- MIC (Rhizoctonia solani): 11.9 µg/mL

Molecule: C=CCOC(Cn1ccnc1)c1ccc(Cl)cc1Cl (stereo not drawn) [imazalil]
- MIC (Gloeosporium album): 1.58 µg/mL
- MIC (Geotrichum candidum): 66.7 µg/mL
- MIC (Colletotrichum musae): 8.9 µg/mL
- MIC (Rhizoctonia solani): 50 µg/mL
- M = measured activity [1, 5]: 38
- X = mean fungal growth [1, 5]: 9 mm
- M = measured activity [1, 6]: 50
- X = mean fungal growth [1, 6]: 7 mm
- M = measured activity [1, 3]: 7
- X = mean fungal growth [1, 3]: 14 mm
- M = measured activity [1, 4]: 68
- X = mean fungal growth [1, 4]: 5 mm
- M = measured activity [2]: 88
- X = mean fungal growth [2]: 2 mm

Molecule: COC(=O)N(OC)c1ccccc1COc1ccn(-c2ccc(Cl)cc2)n1 [pyraclostrobin, methyl N-(2-[1-(4-chlorophenyl)-1H-pyrazol-3-yloxymethyl]phenyl](N-methoxy)carbamate]
- MIC (Gloeosporium album): 66.7 µg/mL
- MIC (Colletotrichum musae): 66.7 µg/mL
- MIC (Rhizoctonia solani): 66.7 µg/mL

Molecule: FC(F)C(F)(F)OCC(Cn1cncn1)c1ccc(Cl)cc1Cl (stereo not drawn) [tetraconazole (II-i), 1-[2-(2,4-dichloro-phenyl)-3-(1,1,2,2-tetrafluoroethoxy)propyl]-1H-1,2,4-triazole]
- M = measured activity [1, 5]: 36
- X = mean fungal growth [1, 5]: 9 mm
- M = measured activity [1, 6]: 45
- X = mean fungal growth [1, 6]: 8 mm
- M = measured activity [1, 3]: 15
- X = mean fungal growth [1, 3]: 13 mm
- M = measured activity [1, 4]: 3
- X = mean fungal growth [1, 4]: 15 mm

Molecule: CCC(C)(NC(=O)c1cc(Cl)c(C)c(Cl)c1)C(=O)CCl (stereo not drawn) [zoxamide (II-j), 3,5-dichloro-N-(3-chloro-1-ethyl-1-methyl-2-oxopropyl)-4-methyl-benzamide]
- M = measured activity [1, 3]: 0
- X = mean fungal growth [1, 3]: 15 mm
- M = measured activity [1, 4]: 2
- X = mean fungal growth [1, 4]: 15 mm

Molecule: (E)-4-chloro-ααα-trifluoro-N-(1-imidazol-1-yl-2-propoxyethylidene)-o-toluidine [triflumizole]
- MIC-values (minimum inhibitory concentration) in ppm (Gloeosporium album): 6.67 ppm
- MIC-values (minimum inhibitory concentration) in ppm (Colletotrichum musae): 28.13 ppm
- MIC-values (minimum inhibitory concentration) in ppm (Rhizoctonia solani): 37.50 ppm
